For the assay, the system named is HCV genotype 1b replicon. The assay can be described thus: HCV replicon assay, cell ELISA with antibody to replicon-encoded NS3/4A (genotype 1b replicon). To be noted: Hepatitis C virus, 96 h, read-out: Replicon 1b IC50 (nM), HCV genotype 1b replicon cells, 96 hours incubation, NS3/4A ELISA readout. The class given is cell-based, hepatitis C virus. An outline of the steps: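 An ELISA on lysed cells, using an antibody against NS3/4A protease, served as the proxy for replicon RNA. Cells had first been exposed for 96 h to serially diluted compound in G418-free conditions. Percent of DMSO control was fitted with a four-parameter function to give IC50.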
A general note: Replicon systems follow genome replication, usually without infectious particles.

On to `CNC(=O)c1c(-c2ccc(F)cc2)oc2cc(N(C)S(C)(=O)=O)c(-c3cccc(-c4nc5ccccc5[nH]4)c3)cc12` [Example 151, 5-[3-(1H-benzimidazol-2-yl)phenyl]-2-(4-fluorophenyl)-N-methyl-6-[methyl (methylsulfonyl)amino]-1-benzofuran-3-carboxamide], for which the IC50 was determined as 5 nM.
In the case of `CNC(=O)c1c(-c2ccc(F)cc2)oc2cc(N(C)S(C)(=O)=O)c(-c3cccc(-c4nc5ccc(C#N)cc5[nH]4)c3)cc12` [Example 152, 5-[3-(6-cyano-1H-benzimidazol-2-yl)phenyl]-2-(4-fluorophenyl)-N-methyl-6-[methyl (methylsulfonyl)amino]-1-benzofuran-3-carboxamide], the IC50 came out at 4 nM.
As for `CNC(=O)c1c(-c2ccc(F)cc2)oc2cc(N(C)S(C)(=O)=O)c(-c3cccc(-c4nc5ccc(Br)cc5[nH]4)c3)cc12` [Example 153, 5-[3-(6-bromo-1H-benzimidazol-2-yl)phenyl]-2-(4-fluorophenyl)-N-methyl-6-[methyl (methylsulfonyl)amino]-1-benzofuran-3-carboxamide], the IC50 was 4 nM.
For `CNC(=O)c1c(-c2ccc(F)cc2)oc2cc(N(C)S(C)(=O)=O)c(-c3cccc(-c4nc5ccc(C)cc5[nH]4)c3)cc12` [Example 154, 2-(4-fluorophenyl)-N-methyl-5-[3-(6-methyl-1H-benzimidazol-2-yl)phenyl]-6-[methyl (methylsulfonyl)amino]-1-benzofuran-3-carboxamide], the IC50 is 4 nM.
Take `CNC(=O)c1c(-c2ccc(F)cc2)oc2cc(N(C)S(C)(=O)=O)c(-c3cccc(-c4nc5ncccc5o4)c3)cc12` [Example 155, 2-(4-fluorophenyl)-N-methyl-6-(N-methylmethylsulfonamido)-5-(3-(oxazolo[4,5-b]pyridin-2-yl)phenyl)benzofuran-3-carboxamide]: the IC50 was determined as 1.1 nM.
On to `CNC(=O)c1c(-c2ccc(F)cc2)oc2cc(N(C)S(C)(=O)=O)c(-c3cccc(-c4nc5ccccc5o4)c3)cc12` [Example 156], for which the IC50 was 6.9 nM.
`CNC(=O)c1c(-c2ccc(F)cc2)oc2cc(N(C)S(C)(=O)=O)c(-c3cccc(-c4nc5ccccc5o4)c3OC)cc12` [Example 157]: the IC50 came to 22.7 nM.
Turning to `CNC(=O)c1c(-c2ccc(F)cc2)oc2cc(N(C)S(C)(=O)=O)c(-c3cccc(-c4nc5cc(F)ccc5o4)c3)cc12` [Example 158], the IC50 is 4.8 nM.
With `CNC(=O)c1c(-c2ccc(F)cc2)oc2cc(N(C)S(C)(=O)=O)c(-c3cccc(-c4nc5ccc(F)cc5o4)c3)cc12` [Example 159], the IC50 worked out at 1.8 nM.
Next, `CNC(=O)c1c(-c2ccc(F)cc2)oc2cc(N(C)S(C)(=O)=O)c(-c3cccc(-c4nc5cccc(F)c5o4)c3)cc12` [Example 160]: 7 nM.
Next, `CNC(=O)c1c(-c2ccc(F)cc2)oc2cc(N(C)S(C)(=O)=O)c(-c3cc(F)cc(-c4nc5cccc(F)c5o4)c3)cc12` [Example 161]: 3.7 nM; `CNC(=O)c1c(-c2ccc(F)cc2)oc2cc(N(C)S(C)(=O)=O)c(-c3cc(F)cc(-c4nc5cc(Cl)ccc5o4)c3)cc12` [Example 162]: 8.2 nM.
On to `CNC(=O)c1c(-c2ccc(F)cc2)oc2cc(N(C)S(C)(=O)=O)c(-c3cc(F)cc(-c4nc5ccc(Cl)cc5o4)c3)cc12` [Example 163], for which the IC50 worked out at 8.5 nM.
With `CNC(=O)c1c(-c2ccc(F)cc2)oc2cc(N(C)S(C)(=O)=O)c(-c3cc(F)cc(-c4nc5cccc(Cl)c5o4)c3)cc12` [Example 164], the IC50 worked out at 16.5 nM.
Next, `CNC(=O)c1c(-c2ccc(F)cc2)oc2cc(N(C)S(C)(=O)=O)c(-c3cc(F)cc(-c4nc5c(C)cccc5o4)c3)cc12` [Example 165]: 4.7 nM; `CNC(=O)c1c(-c2ccc(F)cc2)oc2cc(N(C)S(C)(=O)=O)c(-c3cc(F)cc(-c4nc5ccc(C)cc5o4)c3)cc12` [Example 166]: 4.4 nM; `CNC(=O)c1c(-c2ccc(F)cc2)oc2cc(N(C)S(C)(=O)=O)c(-c3cc(F)cc(-c4nc5cccc(C)c5o4)c3)cc12` [Example 167]: 10.4 nM.
`CNC(=O)c1c(-c2ccc(F)cc2)oc2cc(N(C)S(C)(=O)=O)c(-c3ccc(F)c(-c4nc5ccccc5o4)c3)cc12` [Example 168]: the IC50 amounted to 3.9 nM.
As to `CNC(=O)c1c(-c2ccc(F)cc2)oc2cc(N(C)S(C)(=O)=O)c(-c3cc(-c4nc5ccccc5o4)ccc3F)cc12` [Example 169], the IC50 stood at 6.4 nM.
Turning to `CNC(=O)c1c(-c2ccc(F)cc2)oc2cc(N(C)S(C)(=O)=O)c(-c3cccc(-c4nc5cc(Cl)ccc5o4)c3)cc12` [Example 170], the IC50 came to 5.2 nM.
For the compound `CNC(=O)c1c(-c2ccc(F)cc2)oc2cc(N(C)S(C)(=O)=O)c(-c3cccc(-c4nc5ccc(Cl)cc5o4)c3)cc12` [Example 171], the IC50 was 6.8 nM.
Turning to `CNC(=O)c1c(-c2ccc(F)cc2)oc2cc(N(C)S(C)(=O)=O)c(-c3cccc(-c4nc5cccc(Cl)c5o4)c3)cc12` [Example 172], the IC50 worked out at 27 nM.
As to `CNC(=O)c1c(-c2ccc(F)cc2)oc2cc(N(C)S(C)(=O)=O)c(-c3cccc(-c4nc5c(C)cccc5o4)c3)cc12` [Example 173], the IC50 turned out to be 5.6 nM.
`CNC(=O)c1c(-c2ccc(F)cc2)oc2cc(N(C)S(C)(=O)=O)c(-c3cccc(-c4nc5ccc(C)cc5o4)c3)cc12` [Example 174]: the IC50 amounted to 10.4 nM.
The value for `CNC(=O)c1c(-c2ccc(F)cc2)oc2cc(N(C)S(C)(=O)=O)c(-c3cccc(-c4nc5cccc(C)c5o4)c3)cc12` [Example 175] was 13.8 nM.
Regarding `CNC(=O)c1c(-c2ccc(F)cc2)oc2cc(N(C)S(C)(=O)=O)c(-c3cc(OC)cc(-c4nc5ccccc5o4)c3)cc12` [Example 176], the IC50 was 3.9 nM.
As to `CNC(=O)c1c(-c2ccc(F)cc2)oc2cc(N(C)S(C)(=O)=O)c(-c3ccc(Cl)c(-c4nc5ccccc5o4)c3)cc12` [Example 177], the IC50 was 7.4 nM.
For `CNC(=O)c1c(-c2ccc(F)cc2)oc2cc(N(C)S(C)(=O)=O)c(-c3cc(Cl)cc(-c4nc5ccccc5o4)c3)cc12` [Example 178], the IC50 amounted to 7 nM.
In the case of `CNC(=O)c1c(-c2ccc(F)cc2)oc2cc(N(C)S(C)(=O)=O)c(-c3ccc(OC(F)(F)F)c(-c4nc5ccccc5o4)c3)cc12` [Example 179], the IC50 stood at 7.2 nM.
For the compound `CNC(=O)c1c(-c2ccc(F)cc2)oc2cc(N(C)S(C)(=O)=O)c(-c3cc(-c4nc5ccccc5o4)c(OC)cc3F)cc12` [Example 180], the IC50 stood at 5 nM.
On to `CNC(=O)c1c(-c2ccc(F)cc2)oc2cc(N(C)S(C)(=O)=O)c(-c3cc(F)c(OC)c(-c4nc5ccccc5o4)c3)cc12` [Example 181], for which the IC50 stood at 5.7 nM.
The value for `CNC(=O)c1c(-c2ccc(F)cc2)oc2cc(N(C)S(C)(=O)=O)c(-c3cc(OC)c(OC)c(-c4nc5ccccc5o4)c3)cc12` [Example 182] was 2.3 nM; that for `CNC(=O)c1c(-c2ccc(F)cc2)oc2cc(N(C)S(C)(=O)=O)c(-c3ccc(OC)c(-c4nc5ccccc5o4)c3)cc12` [Example 183] was 1.5 nM.
Consider `CNC(=O)c1c(-c2ccc(F)cc2)oc2cc(N(C)S(C)(=O)=O)c(-c3ccc(OC)c(-c4nc5ccc(F)cc5o4)c3)cc12` [Example 185], for which the IC50 stood at 2.2 nM.
Next, `CNC(=O)c1c(-c2ccc(F)cc2)oc2cc(N(C)S(C)(=O)=O)c(-c3ccc(OC)c(-c4nc5cccc(F)c5o4)c3)cc12` [Example 186]: 2 nM.

Source of the values: patent US20120328569A1, “INHIBITORS OF HEPATITIS C VIRUS NS5B POLYMERASE” (priority 2010, published 2012).
